Laboratory results reported in patent US20150087610A1, “Method of Modifying Fertility” (Monell Chemical Senses Center, priority 2012, published 2015).
“Also recorded” adds a separate entry of the source.

Assays:
mouse spermatids = assay: Calcium imaging of mouse spermatids with bitter tastants; assay type: cell-based; settings: Mus musculus, read-out: EC50 of calcium response
Protocol: Eight adult male mice of each genotype: C57BL/6 and Gnat^−/− mice, were sacrificed, and the testis and caudal epididymis were immediately removed and transferred into HS solution containing (mM): 135 NaCl, 5 KCl, 2 CaCl2, 1 MgCl2, 30 Hepes, 10 glucose, 10 lactic acid, and 1 pyruvic acid (pH adjusted to 7.4 with NaOH) (Xia et al., 2007). For isolation of spermatids, seminiferous tubules from mouse testicle were dissected out and placed in a […] containing 3 ml of HS medium. The tissue was finely minced and gently triturated with a fire-polished pipette, and the mixture was filtered with a 100 μm nylon cell strainer (BD Falcon, Bedford, Mass.). The dissociated cells were collected in a 1.5 ml plastic tube, and washed once in HS medium by centrifugation at 300 g for 4 min and resuspended in HS medium.
(§1) Mouse spermatogenic cells were loaded with 5 μM acetoxymethylester of Fura-2 (Fora-2/AM) and 80 μg/ml pluronic F127 (Molecular Probes, Eugene, Oreg.) and transferred onto coverslips (22×60 mm, No. 0, Thomas Scientific Co.) for at least 1 hour at room temperature. The coverslip with spermatogenic cells was mounted in a recording chamber and superfused with HS or HS containing tasting compounds or the bitter blocker probenecid (Sigma-Aldrich, St. Louis, Mo.) via a valve controller (VC-8, Warner, USA).
(§2) Imaging of calcium responses was conducted as previously described (Gomez et al, 2005). Stimulation duration was 30 seconds and perfusion rate was 0.8 ml/min. Cells were excited at 340 nm and 380 nm and signals at 510 nm were captured by a cooled CCD camera. The change in fluorescence ratio (F=F340/F380) was recorded for regions-of-interest drawn on the cells.
To analyze the dose-dependent calcium responses, the response intensity (FN) was normalized and expressed as ΔF/F0 value: ΔF/F0=(F−F0)/F0. Here F0 is the fluorescence at the beginning of stimulation, i.e., time 0, and F is the peak fluorescence ratio evoked by the stimulation. Dose-response curves and EC50 values were generated based on the normalized responses using the software Origins by nonlinear regression.

human T2r14 = biological target: T1, human T2r14 (Homo sapiens, UniProt Q9NYV8); settings: heterologously expressed, most sensitive of five human T2rs; cited from earlier work
T1 sequence (Q9NYV8 1-317): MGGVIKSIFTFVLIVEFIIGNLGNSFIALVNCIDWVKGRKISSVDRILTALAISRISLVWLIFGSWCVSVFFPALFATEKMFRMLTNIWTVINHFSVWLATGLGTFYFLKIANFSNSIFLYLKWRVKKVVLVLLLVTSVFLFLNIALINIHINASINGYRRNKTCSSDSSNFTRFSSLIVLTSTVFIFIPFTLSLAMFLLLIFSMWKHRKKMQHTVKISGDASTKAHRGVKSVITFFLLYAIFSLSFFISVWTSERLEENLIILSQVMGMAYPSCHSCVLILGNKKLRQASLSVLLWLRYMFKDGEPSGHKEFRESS

C57B/6L wild-type sperm = assay: Bitter blocker probenecid on calcium responses of wild-type mouse sperm; assay type: cell-based; settings: for effect of blocker on response to PTC: preincubation 5 min, 0.3 mM PTC; for response to PTC after wash-off of blocker: after wash-off of 1 mM probenecid
Protocol: as §1, §2
To confirm whether the germ cells' responses to bitter tastants were mediated by the bitter taste receptors, we examined the effect of the bitter taste receptor blocker probenecid (Greene et al, 2001) and nullification of the α-gustducin gene in Gnat3 α-gustducin knockout mice described in Wong et al, 1996. Probenecid is known to inhibit the responses of human T2R16, 38 and 43 to salicin, PTC and PROP, and aloin, but not that of T2R31 to saccharin (Greene et al, 2011).

human T2R16 = biological target: T2, human T2R16 (Homo sapiens, UniProt Q9NYV7); settings: response to salicin; cited from earlier work
T2 sequence (Q9NYV7 1-291): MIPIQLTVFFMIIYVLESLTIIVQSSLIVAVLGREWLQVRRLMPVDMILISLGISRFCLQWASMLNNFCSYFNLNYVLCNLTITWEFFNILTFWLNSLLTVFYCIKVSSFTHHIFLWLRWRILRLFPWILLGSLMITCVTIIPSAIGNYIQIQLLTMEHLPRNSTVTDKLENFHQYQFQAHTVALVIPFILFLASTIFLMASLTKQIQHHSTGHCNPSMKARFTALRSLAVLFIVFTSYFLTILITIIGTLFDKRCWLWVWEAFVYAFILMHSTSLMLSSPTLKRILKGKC

human T2R38 = biological target: T3, human T2R38 (Homo sapiens, UniProt P59533); settings: response to PTC and PROP; cited from earlier work
T3 sequence (P59533 1-333): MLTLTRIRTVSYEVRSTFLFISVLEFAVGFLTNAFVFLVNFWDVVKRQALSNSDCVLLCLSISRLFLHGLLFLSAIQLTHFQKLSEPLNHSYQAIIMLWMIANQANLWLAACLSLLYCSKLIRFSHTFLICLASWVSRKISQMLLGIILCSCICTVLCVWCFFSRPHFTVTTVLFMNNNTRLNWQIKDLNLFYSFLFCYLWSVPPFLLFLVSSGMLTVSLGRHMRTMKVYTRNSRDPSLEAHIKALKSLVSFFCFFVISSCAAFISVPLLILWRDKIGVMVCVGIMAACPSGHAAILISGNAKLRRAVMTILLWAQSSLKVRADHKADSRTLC

human T2R43 = biological target: T4, human T2R43 (Homo sapiens, UniProt P59537); settings: response to aloin; cited from earlier work
T4 sequence (P59537 1-309): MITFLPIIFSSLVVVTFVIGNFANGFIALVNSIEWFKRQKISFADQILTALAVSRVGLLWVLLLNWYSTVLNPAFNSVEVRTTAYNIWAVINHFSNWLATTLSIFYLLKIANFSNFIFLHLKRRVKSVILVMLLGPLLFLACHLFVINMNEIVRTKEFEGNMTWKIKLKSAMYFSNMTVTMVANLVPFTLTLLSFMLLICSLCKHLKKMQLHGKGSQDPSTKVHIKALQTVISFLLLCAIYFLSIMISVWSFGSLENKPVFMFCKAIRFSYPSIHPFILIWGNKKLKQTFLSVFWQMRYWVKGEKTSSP

| SMILES | EC50 (mouse spermatids) [µM] | EC50 (human T2r14) [µM] | effect of blocker on response to cycloheximide (C57B/6L wild-type sperm; 1 mM probenecid) | effect of blocker on response to PTC (C57B/6L wild-type sperm; 1 mM probenecid) | effect of blocker on response to PTC (C57B/6L wild-type sperm; 1 mM probenecid, listed as prebenecid) | response to PTC after wash-off of blocker (C57B/6L wild-type sperm) | response to PTC after wash-off of blocker (C57B/6L wild-type sperm; listed as prebenecid) | inhibition of receptor response (human T2R16) | inhibition of receptor response (human T2R38) | inhibition of receptor response (human T2R43) |
| --- | --- | --- | --- | --- | --- | --- | --- | --- | --- | --- |
| CC(C)(O)[C@@H]1[C@H]2OC(=O)[C@@H]1[C@]1(O)C[C@H]3O[C@]34C(=O)O[C@H]2[C@]14C [picrotin] | 20 ± 10 | 18 |  |  |  |  |  |  |  |  |
| CCCN(CCC)S(=O)(=O)c1ccc(C(=O)O)cc1 [probenecid] |  |  | did not block; also recorded: no inhibitory effect | nearly undetectable | nearly completely suppressed | partially recovered | restored | inhibit | inhibit | inhibit |
